Results: the NIST ThermoML archive (doi:10.1016/j.jct.2016.01.017)
± gives the expanded uncertainty stated by the source.

Test: activity coefficient (dimensionless); of the first substance listed, at infinite dilution; xn = mol fraction of the nth substance listed
Details: 100 kPa, Liquid, Chromatography, x1 = 0

SMILES | activity coefficient (308.15 K) | activity coefficient (318.15 K) | activity coefficient (328.15 K) | activity coefficient (338.15 K) | activity coefficient (348.15 K) | activity coefficient (358.15 K) | activity coefficient (368.15 K)
CCOC(C)(C)C [2-ethoxy-2-methylpropane] + CCCC[n+]1ccc(C#N)cc1.O=S(=O)([N-]S(=O)(=O)C(F)(F)F)C(F)(F)F | 8.97 ± 0.77 | 8.89 ± 0.77 | 8.84 ± 0.76 | 8.8 ± 0.76 | 8.78 ± 0.76 | 8.73 ± 0.75 | 8.68 ± 0.75
CCC(C)(C)OC [2-methoxy-2-methylbutane] + CCCC[n+]1ccc(C#N)cc1.O=S(=O)([N-]S(=O)(=O)C(F)(F)F)C(F)(F)F | 4.33 ± 0.37 | 4.48 ± 0.39 | 4.62 ± 0.4 | 4.76 ± 0.41 | 4.88 ± 0.42 | 5.01 ± 0.43 | 5.13 ± 0.44
COC(C)(C)C [2-methoxy-2-methylpropane] + CCCC[n+]1ccc(C#N)cc1.O=S(=O)([N-]S(=O)(=O)C(F)(F)F)C(F)(F)F | 3.01 ± 0.26 | 3.13 ± 0.27 | 3.24 ± 0.28 | 3.35 ± 0.29 | 3.45 ± 0.3 | 3.56 ± 0.31 | 3.66 ± 0.32
CC(C)CO [2-methyl-1-propanol] + CCCC[n+]1ccc(C#N)cc1.O=S(=O)([N-]S(=O)(=O)C(F)(F)F)C(F)(F)F | 3.2 ± 0.28 | 2.93 ± 0.25 | 2.7 ± 0.23 | 2.5 ± 0.22 | 2.32 ± 0.2 | 2.18 ± 0.19 | 2.04 ± 0.18
CC(C)(C)O [2-methylpropan-2-ol] + CCCC[n+]1ccc(C#N)cc1.O=S(=O)([N-]S(=O)(=O)C(F)(F)F)C(F)(F)F | 2.28 ± 0.2 | 2.14 ± 0.18 | 2.01 ± 0.17 | 1.9 ± 0.16 | 1.8 ± 0.15 | 1.71 ± 0.15 | 1.63 ± 0.14
CCC(C)CC [3-methylpentane] + CCCC[n+]1ccc(C#N)cc1.O=S(=O)([N-]S(=O)(=O)C(F)(F)F)C(F)(F)F | 30.7 ± 2.7 | 28.4 ± 2.5 | 26.4 ± 2.3 | 24.7 ± 2.1 | 23.1 ± 2 | 21.7 ± 1.9 | 20.6 ± 1.8
C=C(C)c1ccccc1 [(1-methylethenyl)benzene] + CCCC[n+]1ccc(C#N)cc1.O=S(=O)([N-]S(=O)(=O)C(F)(F)F)C(F)(F)F | 1.94 ± 0.17 | 2.09 ± 0.18 | 2.24 ± 0.19 | 2.4 ± 0.21 | 2.55 ± 0.22 | 2.7 ± 0.23 | 2.86 ± 0.25
CC(C)=O [acetone] + CCCC[n+]1ccc(C#N)cc1.O=S(=O)([N-]S(=O)(=O)C(F)(F)F)C(F)(F)F | 0.377 ± 0.039 | 0.403 ± 0.04 | 0.427 ± 0.042 | 0.453 ± 0.043 | 0.479 ± 0.045 | 0.505 ± 0.046 | 0.531 ± 0.048
CC#N [acetonitrile] + CCCC[n+]1ccc(C#N)cc1.O=S(=O)([N-]S(=O)(=O)C(F)(F)F)C(F)(F)F | 0.432 ± 0.042 | 0.449 ± 0.043 | 0.466 ± 0.044 | 0.483 ± 0.045 | 0.5 ± 0.046 | 0.516 ± 0.047 | 0.531 ± 0.048
c1ccccc1 [benzene] + CCCC[n+]1ccc(C#N)cc1.O=S(=O)([N-]S(=O)(=O)C(F)(F)F)C(F)(F)F | 1.07 ± 0.09 | 1.12 ± 0.09 | 1.17 ± 0.1 | 1.22 ± 0.1 | 1.28 ± 0.11 | 1.32 ± 0.11 | 1.38 ± 0.12
CCCCO [butan-1-ol] + CCCC[n+]1ccc(C#N)cc1.O=S(=O)([N-]S(=O)(=O)C(F)(F)F)C(F)(F)F | 3.19 ± 0.28 | 2.94 ± 0.25 | 2.74 ± 0.24 | 2.56 ± 0.22 | 2.41 ± 0.21 | 2.28 ± 0.2 | 2.15 ± 0.19
CCC(C)O (stereo not drawn) [butan-2-ol] + CCCC[n+]1ccc(C#N)cc1.O=S(=O)([N-]S(=O)(=O)C(F)(F)F)C(F)(F)F | 2.69 ± 0.23 | 2.5 ± 0.2 | 2.33 ± 0.2 | 2.18 ± 0.19 | 2.06 ± 0.18 | 1.94 ± 0.17 | 1.84 ± 0.16
CCCC=O [butanal] + CCCC[n+]1ccc(C#N)cc1.O=S(=O)([N-]S(=O)(=O)C(F)(F)F)C(F)(F)F | 0.7 ± 0.06 | 0.738 ± 0.062 | 0.773 ± 0.065 | 0.811 ± 0.068 | 0.848 ± 0.071 | 0.884 ± 0.073 | 0.917 ± 0.076
C1CCCCCC1 [cycloheptane] + CCCC[n+]1ccc(C#N)cc1.O=S(=O)([N-]S(=O)(=O)C(F)(F)F)C(F)(F)F | 22.3 ± 1.9 | 20.6 ± 1.8 | 19.1 ± 1.7 | 17.8 ± 1.5 | 16.7 ± 1.4 | 15.6 ± 1.3 | 14.8 ± 1.3
